Results published in US20230115817A1, “CRYSTAL OF PDE3/PDE4 DUAL INHIBITOR AND USE THEREOF” (Chia Tai Tianqing Pharmaceutical Group Co., Ltd., priority 2020, published 2023).
One block for each compound: values may come before it.

Key:
PDE4 = conditions: cited from earlier work
[1] = cited from earlier work
[2] = in vivo; cited from earlier work
[3] = Pharmacokinetic study in beagle dogs; format: in vivo
Experimental: Experimental Example 3: Pharmacokinetic Study in Beagle Dogs
In this study, male beagle dogs were selected as test animals, and LC-MS/MS was used for quantitatively measuring the drug concentration in plasma of beagle dogs at different time points after intravenous injection or intragastric administration of the compound of formula (I) so as to evaluate the pharmacokinetics of the compound of formula (I) in beagle dogs.
The clear solution of the compound of formula (I) was injected into two beagle dogs of 10-12 kg via the cephalic vein or saphenous vein, and the clear solution of the compound of formula (I) was administered intragastrically to two beagle dogs of 10-12 kg (fasted overnight). The animals were all subjected to a blood collection of approximately 500 μL each time from peripheral veins at 0.0333, 0.0833, 0.25, 0.5, 1, 2, 4, 6, 8 and 24 h post-dose, and the blood was transferred into commercial centrifuge tubes containing 0.85-1.15 mg of K2 EDTA.2H2O anticoagulant, and plasma was separated by centrifugation at 3000 g for 10 min at 4° C. The plasma concentration was measured by LC-MS/MS, and the relevant pharmacokinetic parameters were calculated using pharmacokinetic software WinNonlin™ Version 6.3 (Pharsight, Mountain View, Calif.) using non-compartmental model linear-log trapezoidal method.

[4] = test system: cigarette smoke-induced rat acute lung injury model; test: Pharmacodynamic study in cigarette smoke-induced rat acute lung injury model; format: in vivo, Sprague-Dawley rats; conditions: atomization 0.05 and 0.15 mg/ml, 30 min daily
Experimental: Experimental Example 5: Pharmacodynamic Study in Cigarette Smoke-Induced Rat Acute Lung Injury Model
Male Sprague-Dawley rats (supplied by Shanghai SLAC Laboratory Animal Co., Ltd.), SPF grade, approximately 200 g.
1. Animals were randomly divided into 6 groups according to body weight after arrival and a one-week acclimation;
2. On days 1-3 of the experiment, the corresponding compound of each group was atomized for 30 min. The animals in the model group and the treatment groups were exposed to cigarette smoke for 1 h, and after a 4-h interval, the animals were exposed to cigarette smoke again for 1 h. Cigarette smoke was given twice daily for 3 consecutive days. The control group animals were exposed to room air;
3. On day 4 of the experiment, the corresponding compound of each group was atomized for 30 min, and then the animals in the model group and the treatment groups were given the atomized 150 ng/mL LPS for 15 min by inhalation. After 3 h (from the time starting atomization), the animals were exposed to cigarette smoke for 1 h, and then the lung function (Penh and F) of the animals was examined; bronchoalveolar lavage fluid was collected for cell counting after the animals were euthanized with CO2. […]

[5] = Solid stability testing of crystalline form B (HPLC); format: physicochemical
Experimental: Example 6: Stability Study of Solid Crystalline Form B of the Compound of Formula (I) High Performance Liquid Chromatography (HPLC)
The chromatographic conditions of the HPLC method are seen in table below: Chromatographic column: Zorbax SB C-18, 4.6 mm×150 mm, 5 μm (PDS-HPLC-007)
Mobile phase A: 0.1% TFA in water
Preparation of sample: the sample was dissolved in a mixed solvent of acetonitrile and water (acetonitrile:water=50:50 (v/v))
The stability of the compound in the following conditions was examined, and samples were taken at different time points to detect the content. About 5 mg of the crystalline form B of the compound of formula (I) was accurately weighted in duplicate, transferred to a dry and clean glass bottle, spread into a thin layer as test samples, and placed in experimental conditions of influential factors ((60° C.), (relative humidity 92.5%), illumination (total illumination of 1.2×106 Lux·hr/near UV energy of 200 w·hr/m2), (40° C., relative humidity 75%), or (60° C., relative humidity 75%)). The samples were covered with aluminum foils having holes, and thus completely exposed to the conditions. Sampling analysis was performed at 5 days, 10 days, 1 month, 2 months and 3 months. The samples were completely exposed to illumination (visible light of 1200000 Lux, UV of 200 W) at room temperature.

[6] = Hygroscopicity study (dynamic vapor sorption); format: physicochemical; conditions: 25° C., 0%-90%-0% RH
Experimental: Example 7: Hygroscopicity Study of Crystalline Form B of Compound of Formula (I)
Instrument model: SMS DVS Advantage
Test conditions: the sample (10-20 mg, the crystalline form B prepared in Example 3) was placed in DVS sample tray for testing.
Balancing: dm/dt=0.01%/min (shortest: 10 min, longest: 180 min)
Drying: drying at 0% RH for 120 min
RH (%) test gradient: 10%

[7] = intragastric administration 3 mg/kg
[8] = intravenous injection 0.5 mg/kg

Compound: COc1cc2c(cc1OC)-c1c/c(=N\c3c(C)cc(C)cc3C)n(CCNC(N)=O)c(=O)n1CC2 [RPL554]
PDE4 inhibitory activity (in words) (PDE4): unsatisfactory | Solubility (in words) [1]: poor solubility | Plasma clearance (in words) [2]: high plasma clearance

Area under plasma concentration-time curve (0-inf) [3, 7]: 0.123 µM·h | Peak concentration [3, 7]: 59.4 nM | Time to peak [3, 7]: 0.6 h | Area under plasma concentration-time curve (0-inf) [3, 8]: 0.21 µM·h | Half-life [3, 8]: 18 min | Plasma clearance [3, 8]: 70.3 mL/min/kg | bioavailability ([3]; male, dog, plasma, po, intragastric administration 3 mg/kg): 7.5%
Compound: CCOc1cc2c(cc1OC)-c1c/c(=N\c3c(C)cc(C)cc3C)n(CCNC(=O)c3c(O)nnn3C)c(=O)n1CC2 [Compound of formula (I)]
Airway resistance index Penh (Mch challenge) [4]: reduce | Total number of white blood cells in BALF [4]: reduce

Total impurities % ([5]; 40° C.-75% RH-1 month): 0.10% | Total impurities % ([5]; 40° C.-75% RH-2 months): 0.08% | Total impurities % ([5]; 40° C.-75% RH-3 months): 0.09% | Total impurities % ([5]; 40° C.-75% RH-10 days): 0.10% | Total impurities % ([5]; 60° C.-75% RH-1 month): 0.10% | Total impurities % ([5]; 60° C.-75% RH-10 days): 0.10% | Total impurities % ([5]; 60° C.-5 days): 0.10% | Total impurities % ([5]; 60° C.-10 days): 0.11% | Total impurities % ([5]; 92.5% RH-5 days): 0.11% | Total impurities % ([5]; 92.5% RH-10 days): 0.10% | Total impurities % ([5]; Day 0): 0.11% | Total impurities % ([5]; Illumination (1.2×106 Lux·hr, near UV 200 w·hr/m2)): 0.10% | Total impurities % ([5]; In the dark): 0.11% | Solid stability (in words) ([5]; high temperature, high humidity or illumination): good stability | Hygroscopicity (DVS, in words) [6]: low hygroscopicity
Compound: CCOc1cc2c(cc1OC)-c1c/c(=N\c3c(C)cc(C)cc3C)n(CCNC(=O)c3c(O)nnn3C)c(=O)n1CC2

Compound: COc1cc2c(cc1OC)-c1cc(Oc3c(C(C)C)cccc3C(C)C)nc(=O)n1CC2 [RPL565]
PDE4 inhibitory activity (in words) (PDE4): unsatisfactory | Solubility (in words) [1]: poor solubility | Plasma clearance (in words) [2]: high plasma clearance
